US20030004172A1, “Fused pyrimidinone matrix metalloproteinase inhibitors” (priority 2001, published 2003)

Molecular target: MMP-13CD (catalytic domain of collagenase-3) (Homo sapiens, UniProt P45452)
Experiment: Thiopeptolide substrate hydrolysis inhibition assay, MMP-13CD
Assay type: biochemical
Conditions: Table I; thiopeptolide substrate, HEPES pH 7.0, 22° C.; read-out: MMP-13CD IC50
Text: Thiopeptolide substrates show virtually no decomposition or hydrolysis at or below neutral pH in the absence of a matrix metalloproteinase enzyme.

Row | Compound | IC50
1 | Cn1c(=O)n(Cc2ccccc2)c(=O)c2cc(C(=O)OCc3ccccc3)oc21 [Example 97, 3-Benzyl-1-methyl-2,4-dioxo-1,2,3,4-tetrahydro-furo[2,3-d]pyrimidine-6-carboxylic acid benzyl ester] | > 100000 nM
2 | Cn1c(=O)n(Cc2ccc(-c3ccccc3)cc2)c(=O)c2cc(C(=O)OCc3ccccc3)sc21 [Example 100, 3-Biphenyl-4-ylmethyl-1-methyl-2,4-dioxo-1,2,3,4-tetrahydro-thieno[2,3-d]pyrimidine-6-carboxylic acid benzyl ester] | 610 nM
3 | Cn1c(=O)n(CCc2ccccc2)c(=O)c2cc(C(=O)OCc3ccccc3)sc21 [Example 104, 1-Methyl-2,4-dioxo-3-phenethyl-1,2,3,4-tetrahydro-thieno[2,3-d]pyrimidine-6-carboxylic acid benzyl ester] | 1100 nM
4 | Cn1c(=O)n(Cc2nc(N)nc(Nc3ccccc3)n2)c(=O)c2cc(C(=O)OCc3ccccc3)sc21 [Example 105, 3(4-Amino-6-phenylamino-1,3,5-triazin-2-ylmethyl)-1-methyl-2,4-dioxo-1,2,4-tetrahydro-thieno[2,3-d]pyrimidine-6-carboxylic acid benzyl ester] | 520 nM
5 | Cn1c(=O)n(Cc2ccc(C(F)(F)F)cc2)c(=O)c2cc(C(=O)OCc3ccccc3)sc21 [Example 106, 1-Methyl-2,4-dioxo-3-(4-trifluoromethyl-benzyl)-1,2,3,4-tetrahydro-thieno[2,3-d]pyrimidine-6-carboxylic acid benzyl ester] | 590 nM
6 | Cn1c(=O)n(CCCCCCC#N)c(=O)c2cc(C(=O)OCc3ccccc3)sc21 [Example 107, 3-(6-Cyano-hexyl)-1-methyl-2,4-dioxo-1,2,3,4-tetrahydro-thieno[2,3-d]pyrimidine-6-carboxylic acid benzyl ester] | 2400 nM
7 | COc1ccc(OC)c(C(=O)Cn2c(=O)c3cc(C(=O)OCc4ccccc4)sc3n(C)c2=O)c1 [Example 108, 3-[2-(2,5-Dimethoxy-phenyl)-2-oxo-ethyl]-1-methyl-2,4-dioxo-1,2,3,4-tetrahydro-thieno[2,3-d]pyrimidine-6-carboxylic acid benzyl ester] | 1700 nM
8 | Cn1c(=O)n(Cc2cccc(I)c2)c(=O)c2cc(C(=O)OCc3ccccc3)sc21 [Example 109, 3-(3-Iodo-benzyl)-1-methyl-2,4-dioxo-1,2,3,4-tetrahydro-thieno[2,3-d]pyrimidine-6-carboxylic acid benzyl ester] | 940 nM
9 | Cn1c(=O)n(Cc2cccc(C(F)(F)F)c2)c(=O)c2cc(C(=O)OCc3ccccc3)sc21 [Example 110, 1-Methyl-2,4-dioxo-3-(3-trifluoromethyl-benzyl)-1,2,3,4-tetrahydro-thieno[2,3-d]pyrimidine-6-carboxylic acid benzyl ester] | 420 nM
10 | Cn1c(=O)n(Cc2ccc(C(F)(F)F)cc2C(F)(F)F)c(=O)c2cc(C(=O)OCc3ccccc3)sc21 [Example 111, 3-(2,4-Bis-trifluoromethyl-benzyl)-1-methyl-2,4-dioxo-1.2.3.4-tetrahydro-thieno[2,3-d]pyrimidine-6-carboxylic acid benzyl ester] | 3200 nM
11 | Cn1c(=O)n(CCN2C(=O)c3ccccc3C2=O)c(=O)c2cc(C(=O)OCc3ccccc3)sc21 [Example 112, 3-[2-(1,3-Dioxo-1,3-dihydro-isoindol-2-yl)-ethyl]-1-methyl-2,4-dioxo-1,2,3,4-tetrahydro-thieno[2,3-d]pyrimidine-6-carboxylic acid benzyl ester] | 2900 nM
12 | Cn1c(=O)n(CCN2C(=O)c3ccccc3C2=O)c(=O)c2cc(C(=O)OCc3ccccc3)sc21 [Example 113, 3-[2-(1,3-Dioxo-1,3-dihydro-isoindol-2-yl)-ethyl]-1-methyl-2,4-dioxo-1,2,3,4-tetrahydro-thieno[2,3-d]pyrimidine-6-carboxylic acid benzyl ester] | 2900 nM
13 | Cn1c(=O)n(CCCN)c(=O)c2cc(C(=O)OCc3ccccc3)sc21 [Example 116, 3-(3-Amino-propyl)-1-methyl-2,4-dioxo-1,2,3,4-tetrahydro-thieno[2,3-d]pyrimidine-6-carboxylic acid benzyl ester] | 13000 nM
14 | Cn1c(=O)n(CC2CO2)c(=O)c2cc(C(=O)OCc3ccccc3)sc21 (centres unmarked) [Example 119, 1-Methyl-3-oxiranylmethyl-2,4-dioxo-1,2,3,4-tetrahydro-thieno[2,3-d]pyrimidine-6-carboxylic acid benzyl ester] | 510 nM
15 | Cn1c(=O)n(Cc2ccccc2C#N)c(=O)c2cc(C(=O)OCc3ccccc3)sc21 [Example 122, 3-(2-Cyano-benzyl)-1-methyl-2,4-dioxo-1,2,3,4-tetrahydro-thieno[2,3-d]pyrimidine-6-carboxylic acid benzyl ester] | 4500 nM
16 | Cn1c(=O)n(CCCOc2ccccc2)c(=O)c2cc(C(=O)OCc3ccccc3)sc21 [Example 123, 1-Methyl-2,4-dioxo-3-(3-phenoxy-propyl)-1,2,3,4-tetrahydro-thieno[2,3-d]pyrimidine-6-carboxylic acid benzyl ester] | 7800 nM
17 | Cn1c(=O)n(CC(O)COc2cccc3ccccc23)c(=O)c2cc(C(=O)OCc3ccccc3)sc21 (centres unmarked) [Example 126, 3-[2-Hydroxy-3-(naphthalen-1-yloxy)-propyl]-1-methyl-2,4-dioxo-1,2,3,4-tetrahydro-thieno[2,3-d]pyrimidine-6-carboxylic acid benzyl ester] | 13000 nM

The next compounds have a lower IC50 than those just listed; values first:

Row | IC50 | Compound
18 | 330 nM | C=C(Cn1c(=O)c2cc(C(=O)OCc3ccccc3)sc2n(C)c1=O)C(=O)O [Example 114]
19 | 330 nM | C=C(Cn1c(=O)c2cc(C(=O)OCc3ccccc3)sc2n(C)c1=O)C(=O)O [Example 115, 3-(2-Carboxy-allyl)-1-methyl-2,4-dioxo-1,2,3,4-tetrahydro-thieno[2,3-d]pyrimidine-6-carboxylic acid benzyl ester]
20 | 250 nM | Cn1c(=O)n(CCCCOc2ccccc2)c(=O)c2cc(C(=O)OCc3ccccc3)sc21 [Example 121, 1-Methyl-2,4-dioxo-3-(4-phenoxy-butyl)-1,2,3,4-tetrahydro-thieno[2,3-d]pyrimidine-6-carboxylic acid benzyl ester]
21 | 130 nM | CCC(C)Cn1c(=O)c2cc(C(=O)OCc3ccccc3)sc2n(C)c1=O (centres unmarked) [Example 120, 1-Methyl-3-(2-methyl-butyl)-2,4-dioxo-1,2,3,4-tetrahydro-thieno[2,3-d]pyrimidine-6-carboxylic acid benzyl ester]
22 | 110 nM | C=CCCCCn1c(=O)c2cc(C(=O)OCc3ccccc3)sc2n(C)c1=O [Example 124, 3-Hex-5-enyl-1-methyl-2,4-dioxo-1,2,3,4-tetrahydro-thieno[2,3-d]pyrimidine-6-carboxylic acid benzyl ester]
23 | 103 nM | COc1cccc(CNC(=O)c2cc3c(=O)n(Cc4ccc(OC(C)(C)C(=O)OC(C)(C)C)cc4)c(=O)n(C)c3s2)c1 [Example 95, 2-{4-[6-(3-Methoxy-benzylcarbamoyl)-1-methyl-2,4-dioxo-1,4-dihydro-2H-thieno[2,3-d]pyrimidin-3-ylmethyl]-phenoxy}-2-methyl-propionic acid tert-butyl ester]
24 | 90 nM | Cn1c(=O)n(Cc2cccnc2)c(=O)c2cc(C(=O)OCc3ccccc3)sc21 [Example 125, 1-Methyl-2,4-dioxo-3-pyridin-3-ylmethyl-1,2,3,4-tetrahydro-thieno[2,3-d]pyrimidine-6-carboxylic acid benzyl ester]
25 | 63 nM | COc1cccc(Cn2c(=O)c3cc(C(=O)OCc4ccccc4)sc3n(C)c2=O)c1 [Example 98, 3-(3-Methoxy-benzyl)-1-methyl-2,4-dioxo-1,2,3,4-tetrahydro-thieno[2,3-d]pyrimidine-6-carboxylic acid benzyl ester]
26 | 36 nM | Cn1c(=O)n(CN2C(=O)c3ccccc3C2=O)c(=O)c2cc(C(=O)OCc3ccccc3)sc21 [Example 117, 3-(1,3-Dioxo-1,3-dihydro-isoindol-2-ylmethyl)-1-methyl-2,4-dioxo-1,2,3,4-tetrahydro-thieno[2,3-d]pyrimidine-6-carboxylic acid benzyl ester]
27 | 34 nM | Cn1c(=O)n(Cc2ccc(S(C)(=O)=O)cc2)c(=O)c2cc(C(=O)OCc3ccccc3)sc21 [Example 101, 3-(4-Methanesulfonyl-benzyl)-1-methyl-2,4-dioxo-1,2,3,4-tetrahydro-thieno[2,3-d]pyrimidine-6-carboxylic acid benzyl ester]
28 | 34 nM | Cn1c(=O)n(Cc2ccc(S(C)(=O)=O)cc2)c(=O)c2cc(C(=O)OCc3ccccc3)sc21 [Example 102, 3-(4-Methanesulfonyl-benzyl)-1-methyl-2,4-dioxo-1,2,3,4-tetrahydro-thieno[2,3-d]pyrimidine-6-carboxylic acid benzyl ester]
29 | 30 nM | Cc1ccc(Cn2c(=O)c3cc(C(=O)OCc4ccccc4)sc3n(C)c2=O)cc1 [Example 103, 1-Methyl-3-(4-methyl-benzyl)-2,4-dioxo-1,2,3,4-tetrahydro-thieno[2,3-d]pyrimidine-6-carboxylic acid benzyl ester]
30 | 18.5 nM | COc1cccc(CNC(=O)c2cc3c(=O)n(Cc4ccc(OC(C)(C)C(=O)O)cc4)c(=O)n(C)c3s2)c1 [Example 96, 2-{4-[6-(3-Methoxy-benzylcarbamoyl)-1-methyl-2,4-dioxo-1,4-dihydro-2H-thieno[2,3-d]pyrimidin-3-ylmethyl]-phenoxy}-2-methyl-propionic acid]
31 | 15 nM | Cn1c(=O)n(Cc2ccc(F)cc2)c(=O)c2cc(C(=O)OCc3ccccc3)sc21 [Example 118, 3-(4-Fluoro-benzyl)-1-methyl-2,4-dioxo-1,2,3,4-tetrahydro-thieno[2,3-d]pyrimidine-6-carboxylic acid benzyl ester]
32 | 5.35 nM | COc1cccc(CNC(=O)c2cc3c(=O)n(Cc4ccc(C5(C(=O)O)CC5)cc4)c(=O)n(C)c3s2)c1 [Example 94, 1-{4-[6-(3-Methoxy-benzylcarbamoyl)-1-methyl-2,4-dioxo-1,4-dihydro-2H-thieno[2,3-d]pyrimidin-3-ylmethyl]-phenyl}-cyclopropanecarboxylic acid]
